{
  "source": "patent US20060094790A1",
  "about": "“Use of sphingosine kinase activator as skin disease treating agent and method for treating skin diseases using the same” (priority 2004, published 2006)",
  "key": {"rats": {"system": "rats", "conditions": "rat, in vivo", "description": "(§1) Those tests were performed based on “Toxicity Test Standards for Pharmaceutical Products” disclosed by the Korea Food & Drug Administration."}, "sphingosine kinase": {"target": "T1, sphingosine kinase (Mus musculus, UniProt Q8CI15)", "T1 construct": "host or cells: F9-12 cells", "T1 sequence (Q8CI15 1-381 isoform Q8CI15-3)": "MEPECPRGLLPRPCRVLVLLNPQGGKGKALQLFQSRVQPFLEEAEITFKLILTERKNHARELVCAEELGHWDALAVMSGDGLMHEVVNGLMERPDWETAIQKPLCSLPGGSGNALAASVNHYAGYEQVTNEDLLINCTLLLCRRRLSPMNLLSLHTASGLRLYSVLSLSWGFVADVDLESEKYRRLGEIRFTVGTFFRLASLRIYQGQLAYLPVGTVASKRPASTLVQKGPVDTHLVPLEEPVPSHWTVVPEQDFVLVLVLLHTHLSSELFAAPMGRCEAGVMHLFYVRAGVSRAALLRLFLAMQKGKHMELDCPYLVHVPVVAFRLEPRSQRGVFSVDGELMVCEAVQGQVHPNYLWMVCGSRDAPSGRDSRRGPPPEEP", "experiment": "Activation of sphingosine kinase (C17-sphingosine-1-phosphate production, HPLC)", "type": "cell-based", "conditions": "F9-12 cells, 24 hours, 50 μM compound, PMA 300 nM", "experimental": "The following test for activation of sphingosine kinase was performed to determine whether the effects of the above compounds upon intracellular calcium signal transfer as described in Example 1 were caused by activation of sphingosine kinase.\nF9-12 cells were treated with 300 nM of PMA ([…]) as positive control, and 50 μM of each of K6PC4 and K6PC-5 for 24 hours and collected. Then, activity of sphingosine kinase was measured as production of C17-sphingosine-1-phosphate based on 50 μg of protein. Sphingosine-1-phospate was extracted from the collected cells by the steps of: (1) treating with trypsin-EDTA, (2) centrifugal separation at 1,500 rpm for 10 minutes, and (3) washing with PBS, followed by freeze-drying. Then, PBS was added to the freeze-dried product and the resultant product was treated with ultrasonic waves to destroy cells. Sphingosine-1-phosphate was determined by HPLC, and OPA (o-phthalaldehyde) reagent and boric acid buffer were added to the extracted sample and the mixture was reacted at room temperature for 20 minutes. For the HPLC quantitive analysis, fluorescence intensity was measured at each wavelength of 340 nm and 455 nm with a solution in 90% acetonitrile, and a ratio to the internal standard was calculated."}, "human body": {"system": "human body", "conditions": "in vivo", "description": "as §1"}, "hairless mouse [1]": {"system": "hairless mouse", "experiment": "Recovery of calcium gradient on epidermis, acute disruption model by tape stripping", "type": "in vivo", "conditions": "1.0% in PEG:EtOH=7:3, after tape stripping, compared to control", "experimental": "To determine the effect of recovering skin barrier effects obtained by the compound according to the present invention, the compound was evaluated for the effect of recovering a calcium ion gradient in the epidermis.\nThe calcium gradient in the epidermis plays very important role in maintaining homoeostasis of the skin barrier function. For example, when a hairless mouse is subjected to acute disruption on its back by tape stripping, the calcium ion gradient in the epidermis is lost. Therefore, it is possible to evaluate the effect of a test sample upon recovery of a damaged skin barrier by observing recovery of the calcium gradient loss in an acute disruption model.\nIn the following test, K6PC-5 according to the present invention was evaluated for the effect upon variations in calcium gradient in an acute disruption model.\nTissues non-treated with the sample were provided as control, and tissues were collected right after the tape striping, and 3, 6 and 24 hours after the tape stripping. Then, the tissues treated with K6PC-5 (1.0% in PEG:EtOH=7:3) were compared with controls, which are treated by calcium ion capture cell chemical dyeing. More particularly, each freshly collected tissue sample was fixed with a fixing solution comprising 2% glutaraldehyde, 2% formaldehyde, 90 mM potassium oxalate and 1.4% sucrose and refrigerated at 4° C. […]"}, "hairless mouse [2]": {"system": "hairless mouse", "type": "in vivo", "conditions": "1.0% in PEG:EtOH=7:3 combined with 0.05% chlobetason-17-propionate, back of hairless mouse, H & E staining", "excerpt": "To evaluate effect of the sphingosine kinase activator upon inhibition of steroid side effects, a steroid was applied to a hairless mouse. Typically, side effects caused by long-term or excessive dose of steroids include skin atrophy expressed by thinning of skin and weakening of skin functions, and a rebound phenomenon including reoccurrence of conditions caused by stopping use of steroids. It is reported that the main cause for such side effects is inhibition of fibroblast activity and a decrease in collagen production (S. Hammer et al., J. Cell. Biochem, 91, 840-851, 2004), Therefore, it is expected that the compound according to the present invention enhances collagen synthesis and differentiation of keratinocytes, and thus inhibits such side effects caused by steroids. To perform a test, a steroid, i.e. 0.05% chlobetason-17-propionate, and […]-5 according to the present invention (1.0% in PEG:EtOH=7:3) were applied to a hairless mouse and changes in the skin were observed. The treating agents were applied to the back of a hairless mouse 9 times per day and the tissue was collected. Then, the epidermis and dermis were observed by carrying out the H & E staining method (hematoxylin and eosin staining) known to one skilled in the art."}},
  "data": [
    {"compound": "CCCCCCCC(=O)C(CCCCCC)C(=O)NC(CO)CO", "note": "(stereo not drawn) [K6PC-5, N-(1,3-dihydroxyisopropyl)-2-hexyl-3-oxo-decanamide]", "values": [
      {"measurement": "Single dose oral toxicity test result", "setting": "rats", "value": "No irritation"},
      {"measurement": "C17-SIP Production", "setting": "sphingosine kinase; non-treated control 51.72", "value": 75.59, "unit": "pmol/min/mg"},
      {"measurement": "increase in production of sphingosine-1-phosphate", "setting": "sphingosine kinase; versus non-treated control", "value": "about 46%"},
      {"measurement": "Human body application test result", "setting": "human body", "value": "No irritation"},
      {"measurement": "recovery of calcium gradient in the epidermis", "setting": "hairless mouse [1]", "value": "began to be recovered, from 3 hours after the treatment, to form the normal calcium gradient rapidly"},
      {"measurement": "inhibition of steroid side effects (skin atrophy)", "setting": "hairless mouse [2]", "value": "significant inhibition of side effects caused by steroids"}
    ]}
  ]
}
